Assay results published in US9283242B2, “Uses of dihydro bases” (priority 2013, dated 2016).
“Also recorded” adds a separate entry of the source.

Legend:
[1] = tested on: HK81 (AlkB+) E. coli cells; assay type: cell-based; conditions: HK81; percentage relative to unmodified control genome
Description: (A) A 16mer oligonucleotide containing KP1212 (SEQ ID NO: 1) (or controls) at a specific site was chemically synthesized and ligated into the genome of an M13 bacteriophage. (B) The KP1212-containing M13 genomes were replicated within E. coli cells. Progeny were analyzed to characterize the amount and the type of nucleic acid base placed opposite the lesion during replication. The relative reduction in lesion vs. non-lesion competitor progeny formation was used as an estimate of the extent to which KP1212 and m3C inhibited DNA replication. (C) The KP1212-containing M13 genomes were used as templates for in vitro polymerase extension assays, carried out at 72° C., using the high-fidelity DNA polymerase PfuTurbo. (D) Bypass efficiency (CRAB assay) of KP1212, m3C, C in HK81 (AlkB^+) and HK82 (AlkB^−) E. coli cells. m3C and undamaged C were used as controls. Genomes were made and normalized to one another before being combined with a competitor genome. Each mixture was transformed into the corresponding cell strain in triplicate, and bypass efficiency was calculated by using the undamaged C genome as 100% bypass, with error bars representing one standard deviation. (E) Mutagenesis (REAP assay) of KP1212, m3C, and C in HK82 (AlkB^−) E. coli cells. m3C, undamaged C, and an approximately equimolar mixture of genomes carrying unmodified G/A/T/C bases at the site of inquiry (denoted as GATC) were used as controls. Genomes containing the lesions of interest were transfected into E. coli in triplicate.
All E. coli strains used in this work contain the F′ episome, which enables infection by M13 phage. GW5100 strain was used for large scale preparation of M13 phage DNA, SCS 110 (JM110, end Al) was used for amplification of progeny phage post-electroporation, and NR9050 was the strain of choice for double agar plating with X-GAL for blue-clear detection of plaques. The E. coli strains used to replicate lesion-containing phage were HK81 (as AB1157, but nalA) and HK82 (as AB1157, but nalA alkB22; AlkB-deficient).

[2] = Variable temperature 1H NMR, tautomerism in DMF-d7; assay type: physicochemical; conditions: for tautomerism by Variable Temperature NMR: DMF-d7, 20 to −60° C.
Description: At 20° C., exchangeable protons on the base moiety are observed at 7.58 ppm and 4.14 ppm (FIG. 10). At −60° C., exchangeable protons on the base moiety are observed at 8.70 ppm, 8.08 ppm, and 4.68 ppm (FIG. 11). Protons with a chemical shift of 8.70, 8.08, and 7.58 ppm likely correspond to enolic, amido, or imino protons, while protons with a chemical shift of 4.68 and 4.14 ppm likely correspond to amino protons. The expected chemical shifts for enolic, amido, and imino protons are relatively close, and thus these species cannot be assigned at this stage. […] Only the existence of multiple tautomeric species would explain the presence of three exchangeable protons resonances. […] Based on their chemical structures, the keto-amino tautomer will pair with guanine and the keto-imino/enol-imino tautomers can pair with adenine.
All NMR experiments were performed on Varian 500 MHz NMR spectrometers. The deuterated solvent DMF-d7 was from Cambridge Isotope Laboratories, Andover, Mass., USA. 5-Aza-5,6-dihydro-2′-deoxycytidine (KP1212) nucleoside was from Berry & Associates Inc., Dexter, Mich., USA. The NMR sample was prepared by dissolving 10 mg of KP1212 nucleoside in 1.0 ml DMF-d7 (final concentration ˜44 mM). ^1H NMR spectra were reported in parts per million (ppm) and were referenced to the signals for DMF-d7 (8.03 ppm). ^13C NMR spectra were referenced to the signals for DMF-d7 (163.15 ppm).
FIG. 14A depicts the structures of all five possible tautomers (1 to 5) of KP1212, among which the three active protons on the nucleobase shift among the 02, N3, N4 and N5 positions. […] Before assigning the three active protons on the nucleobase moiety, all non-exchangeable protons in KP1212 and the two hydroxyl protons on the 3′ and 5′ positions were identified by carrying out 1D (^1H and ^13C) and 2D (COSY, HSQC, and HMBC) NMR experiments. The NMR signals of the three active protons in the base portion of KP1212 were studied at different temperatures. […] When the temperature was decreased to −50° C., the three broad peaks resolved into six distinct proton resonances (FIG. 14B, denoted as peaks i-vi), which could be assigned to imino (designated as e and n in FIGS. 14A to 14C), amido (designated as g and m), enolic (designated as c and d) or amino (designated as a, b, f, h, i, j, k, l, and o) protons.
At −50° C. six distinct proton resonances (FIG. 14B, i to vi) were observed, attributable to protons bound either to nitrogen or to oxygen atom (for only the base portion of the KP1212 molecule). Integration of the six broad peaks permitted estimation of the relative ratios of the five tautomeric species that exist in solution (FIG. 14A).
The NMR data also allowed the determination of the relative ratios of the tautomeric species present in the DMF solution at −50° C. (FIGS. 14B and 14C). Several peaks in the NMR spectrum partially overlapped (e.g., iv and v), so the raw data were reconstructed using a least squares fit algorithm (FIG. 16). The reconstructed peaks from the simulation were integrated, yielding an estimate of the relative amounts of each of the proton resonances in the spectrum. […] 2) Based on the peak assignments from part 1), a system of linear equations was set up using the relative amounts of tautomers as unknown variables (FIG. 14D). Each NMR peak provided a linear equation whereby the peak area should be equal to the sum of all tautomers (as relative amounts) containing protons that contribute to that peak. The solutions of these equations yielded the relative ratios of the tautomeric species present in DMF at −50° C. (FIG. 14D).

[3] = −50° C. in DMF, deconvoluted from NMR spectrum

SMILES: NC1=NC(=O)N([C@H]2C[C@H](O)[C@@H](CO)O2)CN1 [KP1212, 5-aza-5,6-dihydro-2′-deoxycytidine]
- Polymerase bypass efficiency, Avg. [1]: 128%
- tautomerism by Variable Temperature NMR [2]: shows multiple tautomerism; also recorded: different tautomeric forms
- relative proportion of enol tautomer 1 [2, 3]: 51%
- relative proportion of enol tautomer 2 [2, 3]: 38%
- relative proportion of keto tautomers 3 to 5 collectively [2, 3]: 11%

SMILES: Nc1ccn([C@H]2C[C@H](O)[C@@H](CO)O2)c(=O)n1 [dC, deoxycytidine]
- Polymerase bypass efficiency, Avg. [1]: 100%
- tautomerism by Variable Temperature NMR [2]: does not show multiple tautomerism; also recorded: single tautomerism
- tautomerism by Variable Temperature NMR ([2]; listed as deoxycytidine): only one tautomeric form; also recorded: no imino or enol tautomer exists
